Patent US20220184086A1, “PLK1 INHIBITORS AND PSA LEVELS IN PROSTATE CANCER” (Cardiff Oncology, Inc., priority 2019, published 2022)
Like-named read-outs stand apart in the source and are kept apart here.

Legend:
[1] = biological target: T1, CYP1A2 (Homo sapiens, UniProt P05177); experiment: Inhibition of human cytochrome P450s, human liver microsomes; type: in vitro ADME
T1 construct: was investigated using human liver microsomes; from tissue; host or cells: human liver microsomes
T1 sequence (P05177 1-516): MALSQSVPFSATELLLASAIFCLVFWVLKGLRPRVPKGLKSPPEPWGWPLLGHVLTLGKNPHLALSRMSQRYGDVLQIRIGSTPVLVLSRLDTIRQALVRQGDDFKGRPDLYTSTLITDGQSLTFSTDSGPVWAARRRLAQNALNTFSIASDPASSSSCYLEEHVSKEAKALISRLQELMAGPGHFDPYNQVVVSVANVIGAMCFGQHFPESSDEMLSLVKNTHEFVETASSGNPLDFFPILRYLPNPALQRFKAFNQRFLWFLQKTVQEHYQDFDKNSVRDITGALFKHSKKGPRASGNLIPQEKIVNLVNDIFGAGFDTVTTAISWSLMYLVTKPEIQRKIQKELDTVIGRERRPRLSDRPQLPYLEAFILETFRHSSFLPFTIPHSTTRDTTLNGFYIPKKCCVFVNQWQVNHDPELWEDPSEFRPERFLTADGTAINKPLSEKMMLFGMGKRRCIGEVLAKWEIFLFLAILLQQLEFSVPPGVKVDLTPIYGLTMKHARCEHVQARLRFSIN

[2] = biological target: T2, CYP2C8 (Homo sapiens, UniProt P10632); experiment: as above; type: in vitro ADME
T2 construct: was investigated using human liver microsomes; from tissue; host or cells: human liver microsomes
T2 sequence (P10632 1-490): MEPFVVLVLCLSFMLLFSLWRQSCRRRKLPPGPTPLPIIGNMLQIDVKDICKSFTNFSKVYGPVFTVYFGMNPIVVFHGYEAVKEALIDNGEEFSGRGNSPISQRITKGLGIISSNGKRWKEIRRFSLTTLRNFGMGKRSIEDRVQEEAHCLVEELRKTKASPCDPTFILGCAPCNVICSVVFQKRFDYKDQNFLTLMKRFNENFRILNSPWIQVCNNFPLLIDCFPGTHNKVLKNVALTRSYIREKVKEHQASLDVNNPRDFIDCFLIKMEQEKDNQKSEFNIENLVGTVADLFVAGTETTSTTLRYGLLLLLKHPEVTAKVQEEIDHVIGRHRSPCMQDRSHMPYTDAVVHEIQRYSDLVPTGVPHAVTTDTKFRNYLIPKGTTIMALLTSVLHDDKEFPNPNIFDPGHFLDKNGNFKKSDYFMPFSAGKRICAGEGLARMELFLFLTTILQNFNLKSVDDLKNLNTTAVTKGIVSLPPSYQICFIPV

[3] = biological target: T3, CYP2C9 (Homo sapiens, UniProt P11712); experiment: as above; type: in vitro ADME; conditions: Diclofenac 4-hydroxylation, mean ± SEM
T3 construct: was investigated using human liver microsomes; from tissue; host or cells: human liver microsomes

[4] = biological target: T4, CYP2C19 (Homo sapiens, UniProt P33261); experiment: as above; type: in vitro ADME; conditions: Mephenytoin 4-hydroxylation, mean ± SEM
T4 construct: was investigated using human liver microsomes; from tissue; host or cells: human liver microsomes

[5] = biological target: T5, CYP2D6 (Homo sapiens, UniProt P10635); experiment: as above; type: in vitro ADME; conditions: Bufuralol 1-hydroxylation, mean ± SEM
T5 construct: was investigated using human liver microsomes; from tissue; host or cells: human liver microsomes

[6] = biological target: T6, CYP3A4 (Homo sapiens, UniProt P08684); experiment: as above; type: in vitro ADME; conditions: mean ± SEM
T6 construct: was investigated using human liver microsomes; from tissue; host or cells: human liver microsomes

[7] = Pharmacokinetics from the prior phase 1 trial; type: in vivo; conditions: 24 mg/m^2 dose
Excerpt: This is consistent with the observed downward changes of PSA values for patients shown above.

[8] = test system: circulating tumor cells (CTC); experiment: Phase 2 study: circulating tumor cell (CTC) evaluation; type: in vivo, human; conditions: for CTC Fold Change: C1D1 to C5D1; for CTC Count (C5D1): onvansertib+abiraterone
Protocol: Circulating tumor cell (CTC) evaluation, reported as favorable or unfavorable (<5 vs.≥CTC/7.5 ml of blood), is shown in FIG. 8. At baseline, 25 (78%) patients had unfavorable CTC count with median of 19 CTC/7.5 ml. Ten of the unfavorable patients were re-analyzed after 12 weeks of treatment.

[9] = Phase 2 study Arm A: absolute neutrophil counts (ANC); type: in vivo, human; conditions: 7 patients plotted, patients 02-002 and 02-005
Protocol: To evaluate this further, neutrophil levels were assessed for patients within Arm A of the current trial. Absolute neutrophil counts (ANC) are plotted in FIG. 3 for 7 patients, with ANC 1.5 indicated as the threshold for Grade 2 (CTCAE version 4.03). Two patients experienced ≥Grade 2 neutropenia after the first cycle of treatment (02-002 and 02-005).

[10] = test system: patients with metastatic castration-resistant prostate cancer (mCRPC)
[11] = test system: cell lines, both from solid as well as hematologic tumors; conditions: large number of cell lines; cited from earlier work
[12] = test system: xenograft tumor; conditions: mice, oral administration, well tolerated doses; cited from earlier work
[13] = rodent and nonrodent species; cited from earlier work
[14] = test system: adult patients with advanced/metastatic solid tumors; conditions: cited from earlier work
[15] = ten patients with unfavorable baseline CTC re-analyzed after 12 weeks of treatment

T6 sequence (P08684 whole entry): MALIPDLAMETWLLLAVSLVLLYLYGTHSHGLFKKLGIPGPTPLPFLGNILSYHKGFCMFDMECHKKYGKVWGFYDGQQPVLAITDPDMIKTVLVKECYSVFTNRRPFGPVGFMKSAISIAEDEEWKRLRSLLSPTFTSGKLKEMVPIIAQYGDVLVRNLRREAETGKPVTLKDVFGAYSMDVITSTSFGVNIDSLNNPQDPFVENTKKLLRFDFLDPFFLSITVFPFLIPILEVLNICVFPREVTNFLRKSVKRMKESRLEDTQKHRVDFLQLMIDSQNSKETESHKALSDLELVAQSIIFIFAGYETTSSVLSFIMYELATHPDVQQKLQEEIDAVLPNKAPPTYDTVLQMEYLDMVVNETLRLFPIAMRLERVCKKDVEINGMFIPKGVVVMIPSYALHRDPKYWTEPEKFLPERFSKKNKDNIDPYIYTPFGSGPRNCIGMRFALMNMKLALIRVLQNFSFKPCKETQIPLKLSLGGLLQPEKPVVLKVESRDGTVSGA
T3 sequence (P11712 whole entry): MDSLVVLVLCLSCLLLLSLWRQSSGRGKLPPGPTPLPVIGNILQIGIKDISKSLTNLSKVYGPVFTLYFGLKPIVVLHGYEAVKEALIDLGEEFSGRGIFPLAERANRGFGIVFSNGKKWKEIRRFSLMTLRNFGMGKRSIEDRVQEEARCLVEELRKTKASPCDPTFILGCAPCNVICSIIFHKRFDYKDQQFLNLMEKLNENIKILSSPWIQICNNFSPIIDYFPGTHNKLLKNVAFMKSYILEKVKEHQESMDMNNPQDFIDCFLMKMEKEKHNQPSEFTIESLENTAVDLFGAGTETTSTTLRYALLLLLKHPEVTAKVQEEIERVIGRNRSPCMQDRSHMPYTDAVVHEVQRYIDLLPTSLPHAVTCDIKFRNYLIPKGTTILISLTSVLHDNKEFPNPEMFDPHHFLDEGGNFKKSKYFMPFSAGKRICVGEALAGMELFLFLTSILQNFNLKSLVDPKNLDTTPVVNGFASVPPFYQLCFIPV
T4 sequence (P33261 whole entry): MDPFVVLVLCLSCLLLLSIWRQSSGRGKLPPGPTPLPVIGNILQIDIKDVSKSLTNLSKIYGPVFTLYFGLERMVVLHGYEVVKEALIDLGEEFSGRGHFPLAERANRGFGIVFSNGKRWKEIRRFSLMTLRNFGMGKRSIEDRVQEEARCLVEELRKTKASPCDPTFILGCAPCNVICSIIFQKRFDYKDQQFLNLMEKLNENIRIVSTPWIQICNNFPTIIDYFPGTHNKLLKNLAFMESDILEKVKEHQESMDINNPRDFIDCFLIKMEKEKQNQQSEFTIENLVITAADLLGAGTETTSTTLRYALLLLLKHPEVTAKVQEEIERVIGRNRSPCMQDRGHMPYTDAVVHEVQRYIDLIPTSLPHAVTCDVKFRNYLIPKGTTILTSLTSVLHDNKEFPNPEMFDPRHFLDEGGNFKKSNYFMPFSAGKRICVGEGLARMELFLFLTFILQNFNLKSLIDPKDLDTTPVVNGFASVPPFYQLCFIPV
T5 sequence (P10635 whole entry): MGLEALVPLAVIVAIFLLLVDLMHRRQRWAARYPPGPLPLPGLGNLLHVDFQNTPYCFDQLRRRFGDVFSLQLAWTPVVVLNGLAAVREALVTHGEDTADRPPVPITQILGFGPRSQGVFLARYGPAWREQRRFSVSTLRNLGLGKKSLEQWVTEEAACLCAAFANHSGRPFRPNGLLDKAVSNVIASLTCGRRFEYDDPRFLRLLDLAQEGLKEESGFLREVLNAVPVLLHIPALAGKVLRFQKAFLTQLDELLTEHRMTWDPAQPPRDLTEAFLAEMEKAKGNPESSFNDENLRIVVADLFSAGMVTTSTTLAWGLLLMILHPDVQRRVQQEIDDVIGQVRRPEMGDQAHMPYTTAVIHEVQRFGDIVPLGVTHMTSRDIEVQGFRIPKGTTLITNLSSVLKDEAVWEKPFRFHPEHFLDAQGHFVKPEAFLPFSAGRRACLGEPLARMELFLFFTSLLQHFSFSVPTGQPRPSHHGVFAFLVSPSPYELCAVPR

In the case of CN1CCN(c2ccc(OC(F)(F)F)c(Nc3ncc4c(n3)-c3c(c(C(N)=O)nn3CCO)CC4)c2)CC1 [onvansertib, 1-(2-hydroxyethyl)-8-{[5-(4-methylpiperazin-1-yl)-2-(trifluoromethoxy)phenyl]amino}-4,5-dihydro-1H-pyrazolo[4,3-h]quinazoline-3-carboxamide], the “inhibitory effects against CYP1A2” value [1] is reported as “No significant inhibitory effects”, the IC50 ([1]; Tacrine 1-hydroxylation) is reported as greater than 100 µM and the IC50 [2] is reported as 20.2 ± 1.6 µM. The IC50 [3] was 20.4 ± 3.2 µM, the IC50 [4] was 36.9 ± 15.7 µM and the IC50 [5] was 26.8 ± 5.4 µM. For the same molecule, the IC50 ([6]; Midazolam l′-hydroxylation) was 66.2 ± 4 µM, the IC50 ([6]; Testosterone 6β-hydroxylation) was 52.7 ± 9.8 µM and the “time at which the amount of onvansertib is below the 10×IC50 value” [7] was 160 h. For the same molecule, the concentration at 290 h ([7]; human, plasma, oral, 0.1 ng/ml is the limit of quantitation, read-out: drug concentrations at 290 hours (˜12 days)) was less than 0.1 ng/mL, the “CTC Fold Change” value ([8]; patient 02-003) was 17.9 and the “CTC Count (C5D1)” value ([8]; patient 02-003, CTC count at C1D1 4.4) was 78.6. The “CTC Fold Change” value ([8]; patient 02-007) was 6.9, the “CTC Count (C5D1)” value ([8]; patient 02-007, CTC count at C1D1 2.5) was 17.3 and the “CTC Fold Change” value ([8]; patient 03-004) was 3.0. For the same molecule, the “CTC Count (C5D1)” value ([8]; patient 03-004, CTC count at C1D1 0.4) was 1.2, the “CTC Fold Change” value ([8]; patient 03-009) was 1.5 and the “CTC Count (C5D1)” value ([8]; patient 03-009, CTC count at C1D1 3.7) was 5.4. For the same molecule, the “CTC Fold Change” value ([8]; patient 03-013) was 1.4, the “CTC Count (C5D1)” value ([8]; patient 03-013, CTC count at C1D1 2.2) was 3.0 and the “median time on treatment” value ([8]; patients with decrease CTC (n=5), to-date) was 7 months. The “median time on treatment” value ([8]; patients with increase CTC (n=5)) was 5 months, the “patients converted from unfavorable to favorable CTC level (<5 CTC/7.5 ml)” value [8, 15] was 40% and the “patients with a ≥80% CTC decrease” value [8, 15] was 50%. The “patients with no detectable CTC” value [8, 15] was 30%, the “patients with ≥Grade 2 neutropenia after the first cycle” value [9] was “Two” and the “patients with disease stabilization after 5 or more treatment cycles” value ([10]; 03-013 (Arm A) and 01-024 (Arm B)) was “two”. The “initial PSA stabilization or decrease in AR-V7+ subjects” value ([10]; AR-V7+ subjects (n=4), August 2019) was “all”, the “AR-V7 positive patients achieving the primary endpoint of stable disease” value ([10]; AR-V7 positive patients who completed 3 months of treatment) was “Three of 4” and the “initial PSA stabilization or decrease in AR-V7 positive patients” value ([10]; AR-V7 positive patients who completed at least 1 cycle (n=5)) was “all”. For the same molecule, the “patients achieving the efficacy endpoint (PSA stabilization)” value ([10]; Arm A (n=14)) was 5 patients, the “patients remaining on treatment for >1 year” value ([10]; Arm A (n=14)) was 2 patients and the “patients with SD or PR at 12 weeks” value ([10]; Arm A (n=14), 8 of 14) was 57%. The “patients who have or had progression-free survival” value ([10]; Arm A, 3 of 14) was 21%, the “PSA values at day 8 relative to baseline” value ([10]; Arm A, after dosing on days 1-5, with abiraterone and prednisone, then increase until next cycle) was “go down” and the “subjects with initial disease stabilization or reduction, based on PSA levels” value ([10]; Arm B) was 3 subjects. For the same molecule, the “patients achieving the efficacy endpoint (PSA stabilization)” value ([10]; Arm B (n=5)) was 3 patients, the “patients with SD at 12 weeks” value ([10]; Arm B (n=5), 4 of 5) was 80% and the “patients who have or had progression-free survival of >7 months” value ([10]; Arm B, 3 of 5) was 60%. The “tumor shrinkage by CT scan at the end of the study” value ([10]; Patient 03-013 (AR-V7), Arm A) was roughly 30%, the “PSA level increase after onvansertib was added” value ([10]; Patient 03-013 (AR-V7), Arm A, 84 days, with abiraterone/prednisone) was 8.4% and the “PSA level above the baseline (C1D1) PSA level” value ([10]; Patient 03-013, Arm A, into the fifth cycle) was “below 25%”. For the same molecule, the “patients with decreases in PSA levels” value ([10]; after 1 cycle of treatment with addition of onvansertib, eighteen out of 25) was 72%, the “AR-V7+ patients who met the primary efficacy endpoint” value ([10]; of AR-V7+ subjects (n=4), 03-013, 01-024) was “Two” and the “patients confirmed AR-V7+ that have shown a PSA response” value ([10]; patients who completed 4 cycles (12 weeks), onvansertib added to abiraterone) was 2 of 6. For the same molecule, the “activity in proliferation assays” value [11] was “low nanomolar activity”, the xenograft tumor growth [12] was “inhibits xenograft tumor growth” and the oral bioavailability [13] was “good oral bioavailability”. For the same molecule, the DLTs observed ([14]; 36 mg/m^2/day, four patients treated) was “two”, the “patients who developed DLTs” value ([14]; 48 mg/m^2/day) was 2 of 3 and the “dose-limiting toxicities (DLT)” value ([14]; first 3 dose levels (6, 12, and 24 mg/m^2/day)) was “No DLTs”. For the same molecule, the “outcome of the one evaluable patient with prostate cancer” value ([14]; in vivo) was “disease progression”, the primary toxicities ([14]; in vivo) was “thrombocytopenia and neutropenia” and the “best observed treatment response: disease stabilization” value ([14]; of the 16 evaluable patients) was 5 patients. For the same molecule, the “maximum tolerated dose (MTD)” value ([14]; oral, 5 consecutive days every 3 weeks) was 24 mg/m^2/day and the “recovery of hematologic toxicities” value ([14]; thrombocytopenia and neutropenia, reversible) was no more than 3 weeks.
